What was measured:
Format in all cases: in vivo
[1] = test system: barnyard grass; experiment: Submergence soil treatment test (4); details: twenty days after treatment; also: ranges in brackets are in %
Description: (§1) 90 Parts by weight of the above carrier and 10 parts by weight of each of Compounds obtained in the above Preparation Examples were uniformly pulverized and mixed to obtain herbicides. Further, for Herbicide Comparative Examples, comparative herbicides were prepared by uniformly pulverizing and mixing 90 parts by weight of the above carrier and 10 parts by weight of each of the following Compounds x, y, A, B and C.
(§2) (4) Biological Test (Submergence Soil Treatment Test, Herbicide Examples 5˜9 and Comparative Examples 5˜8 and Reference Example 1 and 2)
(§3) 1/15,500-are porcelain pots were filled with paddy field soil, and seeds of barnyard grass and umbrella plant were sown in a surface layer of the soil, and paddy rice at the 2-leaf stage was transplanted. Then, the weeds were treated by uniformly spraying a diluted solution of a predetermined amount of the herbicide prepared in the above (1) onto the water surface at the time of germination of the weeds, and then the pots were allowed to stand in a greenhouse while water was properly sprayed. […] The dosage of each herbicide is shown as an amount of the active ingredient per 10 areas. Further, air-dried weights were measured, and the herbicidal efficacy and the phytotoxicity to the paddy rice were shown as follows.

[2] = test system: umbrella plant; experiment: Submergence soil treatment test (4); details: twenty days after treatment; also: ranges in brackets are in %
Description: as §1, §2, §3

[3] = test system: corn; experiment: Upland soil treatment test (5), phytotoxicity; details: dosage 100 g a.i./hectare, 20th day after treatment
Description: as §1
(§4) (5) Biological Test (Upland Soil Treatment Test, Herbicide Examples 10-26 and Comparative Example 9)
(§5) Seeds of weeds such as large crabgrass, barnyard grass, green foxtail, cocklebur, velvetleaf and slender amaranth and seeds of corn, wheat and barley were sown in 1/5,000-are Wagner pots filled with upland soil, and covered with upland soil. Then, a predetermined amount of the herbicide prepared in the above (1) was suspended in water and uniformly sprayed onto the soil surface. Thereafter, the plants were grown in the greenhouse, and on 20th day after the treatment, the herbicide was evaluated for herbicidal efficacy.
(§6) The dosage of each herbicide is indicated as an amount of the active ingredient per hectare. Further, air-dried weight were measured, and herbicidal efficacy and the pytotoxicity to corn are shown on the basis of the ratings described below.

[4] = test system: corn; experiment: Upland soil treatment test (6), phytotoxicity; details: 100 g/hectare, 20th day after treatment; also: ranges in brackets are in %
Description: as §1
(§7) (6) Biological Test (Upland Soil Treatment Test, Herbicide Examples 27˜42 and Comparative Example 10).
as §5, with “foxtail, cocklebur ,” for “foxtail, cocklebur,”, “evaluated f or” for “evaluated for”
(§8) The dosage of each herbicide is indicated as an amount of the active ingredient per hectare. Further, air-dried weight were measured and the herbicidal efficacy and the phytotoxicity to corn are shown on the basis of the ratings described below.

[5] = test system: large crabgrass; experiment: Upland soil treatment test (6); details: 100 g/hectare, 20th day after treatment; also: ranges in brackets are in %
Description: as §1, §7
as §5, with “foxtail, cocklebur ,” for “foxtail, cocklebur,”, “evaluated f or” for “evaluated for”
as §8

[6] = test system: cocklebur; experiment: Upland soil treatment test (6); details: 100 g/hectare, 20th day after treatment; also: ranges in brackets are in %
Description: as §1, §7
as §5, with “foxtail, cocklebur ,” for “foxtail, cocklebur,”, “evaluated f or” for “evaluated for”
as §8

[7] = test system: barnyard grass; experiment: Upland soil treatment test (6); details: 100 g/hectare, 20th day after treatment; also: ranges in brackets are in %
Description: as §1, §7
as §5, with “foxtail, cocklebur ,” for “foxtail, cocklebur,”, “evaluated f or” for “evaluated for”
as §8

[8] = test system: green foxtail; experiment: Upland soil treatment test (6); details: 100 g/hectare, 20th day after treatment; also: ranges in brackets are in %
Description: as §1, §7
as §5, with “foxtail, cocklebur ,” for “foxtail, cocklebur,”, “evaluated f or” for “evaluated for”
as §8

[9] = test system: velvetleaf; experiment: Upland soil treatment test (6); details: 100 g/hectare, 20th day after treatment; also: ranges in brackets are in %
Description: as §1, §7
as §5, with “foxtail, cocklebur ,” for “foxtail, cocklebur,”, “evaluated f or” for “evaluated for”
as §8

[10] = test system: slender amaranth; experiment: Upland soil treatment test (6); details: 100 g/hectare, 20th day after treatment; also: ranges in brackets are in %
Description: as §1, §7
as §5, with “foxtail, cocklebur ,” for “foxtail, cocklebur,”, “evaluated f or” for “evaluated for”
as §8

[11] = test system: large crabgrass; experiment: Upland soil treatment test (5); details: dosage 100 g a.i./hectare, 20th day after treatment; also: ranges in brackets are in %
Description: as §1, §4, §5, §6

[12] = test system: cocklebur; experiment: Upland soil treatment test (5); details: dosage 100 g a.i./hectare, 20th day after treatment; also: ranges in brackets are in %
Description: as §1, §4, §5, §6

[13] = test system: barnyard grass; experiment: Upland soil treatment test (5); details: dosage 100 g a.i./hectare, 20th day after treatment; also: ranges in brackets are in %
Description: as §1, §4, §5, §6

[14] = test system: green foxtail; experiment: Upland soil treatment test (5); details: dosage 100 g a.i./hectare, 20th day after treatment; also: ranges in brackets are in %
Description: as §1, §4, §5, §6

[15] = test system: velvetleaf; experiment: Upland soil treatment test (5); details: dosage 100 g a.i./hectare, 20th day after treatment; also: ranges in brackets are in %
Description: as §1, §4, §5, §6

[16] = test system: slender amaranth; experiment: Upland soil treatment test (5); details: dosage 100 g a.i./hectare, 20th day after treatment; also: ranges in brackets are in %
Description: as §1, §4, §5, §6

[17] = test system: paddy rice; experiment: Submergence soil treatment test (4), phytotoxicity; details: twenty days after treatment
Description: as §1, §2, §3

[18] = test system: large crabgrass; experiment: Foliar treatment test (2); details: 20th day after treatment; also: ranges in brackets are in %
Description: as §1
(§9) (2) Biological Test (Foliar Treatment Test, Herbicide Examples 1 and 2 and Herbicide Comparative Examples 1 and 2)
as §5, with “The seeds were grown in a greenhouse, and at the stage of 1˜2 leaves of these plants,” for “Then,”, “leaf and stalk portions at a rate of 200 liter/10 are.” for “the soil surface.”
(§10) The herbicidal efficacy and phytotoxcity to crops were shown on the basis of the following ratings.
(§11) The ratio of remaining plant weight to non-treated was determined on the basis of the ratio of remaining plant weight to non-treated=(remaining plant weight in treated plot/remaining plant weight in non-treated plot)×100. This is also applicable to biological tests hereinafter.

[19] = test system: cocklebur; experiment: Foliar treatment test (2); details: 20th day after treatment; also: ranges in brackets are in %
Description: as §1, §9
as §5, with “The seeds were grown in a greenhouse, and at the stage of 1˜2 leaves of these plants,” for “Then,”, “leaf and stalk portions at a rate of 200 liter/10 are.” for “the soil surface.”
as §10, §11

[20] = test system: barnyard grass; experiment: Foliar treatment test (2); details: 20th day after treatment; also: ranges in brackets are in %
Description: as §1, §9
as §5, with “The seeds were grown in a greenhouse, and at the stage of 1˜2 leaves of these plants,” for “Then,”, “leaf and stalk portions at a rate of 200 liter/10 are.” for “the soil surface.”
as §10, §11

[21] = test system: green foxtail; experiment: Foliar treatment test (2); details: 20th day after treatment; also: ranges in brackets are in %
Description: as §1, §9
as §5, with “The seeds were grown in a greenhouse, and at the stage of 1˜2 leaves of these plants,” for “Then,”, “leaf and stalk portions at a rate of 200 liter/10 are.” for “the soil surface.”
as §10, §11

[22] = test system: velvetleaf; experiment: Foliar treatment test (2); details: 20th day after treatment; also: ranges in brackets are in %
Description: as §1, §9
as §5, with “The seeds were grown in a greenhouse, and at the stage of 1˜2 leaves of these plants,” for “Then,”, “leaf and stalk portions at a rate of 200 liter/10 are.” for “the soil surface.”
as §10, §11

[23] = test system: slender amaranth; experiment: Foliar treatment test (2); details: 20th day after treatment; also: ranges in brackets are in %
Description: as §1, §9
as §5, with “The seeds were grown in a greenhouse, and at the stage of 1˜2 leaves of these plants,” for “Then,”, “leaf and stalk portions at a rate of 200 liter/10 are.” for “the soil surface.”
as §10, §11

[24] = test system: large crabgrass; experiment: Upland soil treatment test (3); details: 20th day after treatment; also: ranges in brackets are in %
Description: as §1
(§12) (3) Biological Test (Upland Soil Treatment Test, Herbicide Examples 3 and 4 and Herbicide Comparative Examples 3 and 4)
as §5, with “barnyardgrass,” for “barnyard grass,”
(§13) The herbicidal efficacy and the phytotoxicity to crops are shown on the basis of the ratings described in (2) Foliar treatment test.

[25] = test system: cocklebur; experiment: Upland soil treatment test (3); details: 20th day after treatment; also: ranges in brackets are in %
Description: as §1, §12
as §5, with “barnyardgrass,” for “barnyard grass,”
as §13

[26] = test system: barnyard grass; experiment: Upland soil treatment test (3); details: 20th day after treatment; also: ranges in brackets are in %
Description: as §1, §12
as §5, with “barnyardgrass,” for “barnyard grass,”
as §13

[27] = test system: green foxtail; experiment: Upland soil treatment test (3); details: 20th day after treatment; also: ranges in brackets are in %
Description: as §1, §12
as §5, with “barnyardgrass,” for “barnyard grass,”
as §13

[28] = test system: velvetleaf; experiment: Upland soil treatment test (3); details: 20th day after treatment; also: ranges in brackets are in %
Description: as §1, §12
as §5, with “barnyardgrass,” for “barnyard grass,”
as §13

[29] = test system: slender amaranth; experiment: Upland soil treatment test (3); details: 20th day after treatment; also: ranges in brackets are in %
Description: as §1, §12
as §5, with “barnyardgrass,” for “barnyard grass,”
as §13

CCn1ncc(C(=O)c2ccc(S(C)(=O)=O)c(C(=O)OC)c2Cl)c1O [Comp'd A, reference compound]
Herbicidal Effficacy barnyard grass ([1]; dosage 1 g a.i./10 are): 1 (61-80)
Herbicidal Effficacy barnyard grass ([1]; dosage 3 g a.i./10 are): 4 (1-20)
Herbicidal Effficacy umbrella plant ([2]; dosage 1 g a.i./10 are): 0 (81-100)
Herbicidal Effficacy umbrella plant ([2]; dosage 3 g a.i./10 are): 4 (1-20)
Phyto-toxicity to corn [3]: 0 (100)
Phytotoxicity to corn [4]: 0 (100)
Herbicidal efficacy (A): large crabgrass [5]: 1 (61-80)
Herbicidal efficacy (D): cocklebur [6]: 1 (61-80)
Herbicidal efficacy (B): barnyard grass [7]: 2 (41-60)
Herbicidal efficacy (C): green foxtail [8]: 4 (1-20)
Herbicidal efficacy (E): velvetleaf [9]: 5 (0)
Herbicidal efficacy (F): slender amaranth [10]: 3 (21-40)
Herbicidal Efficacy large crabgrass [11]: 1 (61-80)
Herbicidal Efficacy cocklebur [12]: 1 (61-80)
Herbicidal Efficacy barnyard grass [13]: 2 (41-60)
Herbicidal Efficacy green foxtail [14]: 4 (1-20)
Herbicidal Efficacy velvetleaf [15]: 5 (0)
Herbicidal Efficacy slender amaranth [16]: 3 (21-40)
Phytotoxicity to paddy rice ([17]; dosage 1 g a.i./10 are): 0 (100)
Phytotoxicity to paddy rice ([17]; dosage 3 g a.i./10 are): 4 (0-79)

CCn1ncc(C(=O)c2ccc3c(c2C)C(C)(C)CCS3)c1O [Compound 2]
Herbicidal Efficacy large crabgrass ([18]; dosage 3 g a.i./are): 5 (0)
Herbicidal Efficacy large crabgrass ([18]; dosage 10 g a.i./are): 5 (0)
Herbicidal Efficacy cocklebur ([19]; dosage 3 g a.i./are): 5 (0)
Herbicidal Efficacy cocklebur ([19]; dosage 10 g a.i./are): 5 (0)
Herbicidal Efficacy barnyard grass ([20]; dosage 3 g a.i./are): 4 (1-20)
Herbicidal Efficacy barnyard grass ([20]; dosage 10 g a.i./are): 5 (0)
Herbicidal Efficacy green foxtail ([21]; dosage 3 g a.i./are): 3 (21-40)
Herbicidal Efficacy green foxtail ([21]; dosage 10 g a.i./are): 5 (0)
Herbicidal Efficacy velvetleaf ([22]; dosage 3 g a.i./are): 4 (1-20)
Herbicidal Efficacy velvetleaf ([22]; dosage 10 g a.i./are): 5 (0)
Herbicidal Efficacy slender amaranth ([23]; dosage 3 g a.i./are): 3 (21-40)
Herbicidal Efficacy slender amaranth ([23]; dosage 10 g a.i./are): 5 (0)
Phyto-toxicity to corn [3]: 0 (100)
Herbicidal Efficacy large crabgrass ([24]; dosage 3 g a.i./are): 5 (0)
Herbicidal Efficacy large crabgrass ([24]; dosage 10 g a.i./are): 5 (0)
Herbicidal Efficacy cocklebur ([25]; dosage 3 g a.i./are): 5 (0)
Herbicidal Efficacy cocklebur ([25]; dosage 10 g a.i./are): 5 (0)
Herbicidal Efficacy barnyard grass ([26]; dosage 3 g a.i./are): 5 (0)
Herbicidal Efficacy barnyard grass ([26]; dosage 10 g a.i./are): 5 (0)
Herbicidal Efficacy green foxtail ([27]; dosage 3 g a.i./are): 5 (0)
Herbicidal Efficacy green foxtail ([27]; dosage 10 g a.i./are): 5 (0)
Herbicidal Efficacy velvetleaf ([28]; dosage 3 g a.i./are): 5 (0)
Herbicidal Efficacy velvetleaf ([28]; dosage 10 g a.i./are): 5 (0)
Herbicidal Efficacy slender amaranth ([29]; dosage 3 g a.i./are): 5 (0)
Herbicidal Efficacy slender amaranth ([29]; dosage 10 g a.i./are): 5 (0)
Herbicidal Efficacy large crabgrass [11]: 5 (0)
Herbicidal Efficacy cocklebur [12]: 5 (0)
Herbicidal Efficacy barnyard grass [13]: 5 (0)
Herbicidal Efficacy green foxtail [14]: 5 (0)
Herbicidal Efficacy velvetleaf [15]: 5 (0)
Herbicidal Efficacy slender amaranth [16]: 5 (0)

CCCS(=O)(=O)Oc1c(C(=O)c2cc(C)c3c(c2C)C(C)(C)CCS3(=O)=O)c(C)nn1C [Compound 30, 4,4,5,8-tetramethyl-6-(1,3-dimethyl-5-n-propanesulfonyloxypyrazol-4-yl)carbonylthiochroman-1,1-dioxide]
Phytotoxicity to corn [4]: 0 (100)
Herbicidal efficacy (A): large crabgrass [5]: 5 (0)
Herbicidal efficacy (D): cocklebur [6]: 1 (61-80)
Herbicidal efficacy (B): barnyard grass [7]: 4 (1-20)
Herbicidal efficacy (C): green foxtail [8]: 3 (21-40)
Herbicidal efficacy (E): velvetleaf [9]: 5 (0)
Herbicidal efficacy (F): slender amaranth [10]: 5 (0)

Cc1ccc(S(=O)(=O)Oc2c(C(=O)c3cc(C)c4c(c3C)C(C)(C)CCS4)c(C)nn2C)cc1 [Compound 31]
Phytotoxicity to corn [4]: 0 (100)
Herbicidal efficacy (A): large crabgrass [5]: 5 (0)
Herbicidal efficacy (D): cocklebur [6]: 1 (61-80)
Herbicidal efficacy (B): barnyard grass [7]: 4 (1-20)
Herbicidal efficacy (C): green foxtail [8]: 3 (21-40)
Herbicidal efficacy (E): velvetleaf [9]: 4 (1-20)
Herbicidal efficacy (F): slender amaranth [10]: 5 (0)
